Data reported in PMC3985299, “Single Ascending Dose Safety and Pharmacokinetics of CDRI-97/78: First-in-Human Study of a Novel Antimalarial Drug” (Malaria Research and Treatment, 2014).

Experiments:
healthy human volunteers = assay: Single ascending dose study: haematological parameters; type: in vivo; conditions: 400 mg
Text: The study was approved by the Institute's Ethics Committee. The single ascending dose study and the pharmacokinetic study are registered with Central Trial Registry of India (CTRI/2012/07/002812; CTRI/2012/07/002832). Normal healthy male volunteers in the age group of 18–45 years were invited to join the trial. A detailed informed consent process of the volunteers was undertaken and screening of the volunteers was done after obtaining informed consent. They were recruited through contacts and hospital employees were excluded. The health status of the volunteers was determined by taking medical history, physical examination, routine haematology (haemoglobin, total lymphocyte count, differential count, and platelet count), clinical biochemistry (serum glutamic oxaloacetic transaminase (SGOT), serum glutamic pyruvic transaminase (SGPT), serum bilirubin, serum creatinine, blood urea, serum electrolytes, random blood sugar, total protein, and serum lipid profile), and urine and stool analysis (routine examination and microscopy). The volunteers were asked to report to the study site after 12 hours of fasting for the blood tests. Chest X-ray and 12-lead ECG were also taken. The participants were also screened for human immunodeficiency virus (HIV) and hepatitis B. The volunteers after giving informed consent were screened. The screening process was done latest within 1 month of admission for dosing. The volunteers who fulfilled the inclusion/exclusion criteria were admitted in the CPU the night before drug administration. Standardized dinner was served at 9 pm the night prior to dosing. On day 0, baseline blood sample for biochemical and haematological examination and stool and urine samples for routine and microscopy were taken. […] The subjects were attached to a cardiac monitor and vital HR, BP, ECG, oxygen saturation, and RR were recorded. Corrected QT interval using Fridericia's formula was calculated. Adverse events were assessed at specific time points (0.5, 1, 2, 4, 6, 8, 12, and 24 hrs after medication). […] The study was monitored by a Data Safety Monitoring Board.

[1] = test system: multidrug resistant P. yoelii; set-up: method as in printed; conditions: multidrug resistant P. yoelii in mice; background, ref not given; cited from earlier work
rats = test system: rats; set-up: method as in printed; conditions: preclinical, used for starting dose, ref not given; cited from earlier work
[2] = test system: chloroquine resistant P. falciparum; set-up: method as in printed; conditions: chloroquine resistant P. falciparum in vitro; background, ref not given; cited from earlier work
[3] = Single oral dose (200 mg) pharmacokinetic study, plasma LC-MS/MS, noncompartmental analysis; type: in vivo, human; conditions: oral 200 mg
Experimental: For pharmacokinetic (PK) study, eligible participants were admitted and housed in the clinical pharmacology unit an evening prior to the PK study. A standard dinner was served and a fasting condition for at least 10 hrs prior to dosing and 4 hrs after dosing was ensured. A peripheral forearm vein was cannulated for sampling for the PK analysis. 200 mg of the study drug was administered with 300 mL of water. The time of actual dose administration to the nearest minute was recorded. 2.5 mL of blood was collected from the indwelling cannula at 0 (before dose), 0.25, 0.5, 0.75, 1, 1.5, 2, 4, 6, 8, 12, 18, 24, 48, 72, 96, 120, and 144 hrs (after dose). 10 mL of additional blood was collected at 0 (before dose) and 24 hr (after dose) for laboratory parameters for safety assessment and PK control sample. A time window of ±2 minutes was permitted for collecting the post dose samples from the scheduled time for PK analysis. Plasma was separated from blood sample intended for PK analysis, within 1 hour of blood sampling, by centrifugation at 2000 rpm for 10 min at 4°C. Samples were stored at −80°C pending transportation. Heparinised blood samples were transported to the laboratory within 7 days of collection. Quantitative analyses of clinical phase ascending dose and single dose PKs samples were done at GLP lab of Pharmacokinetics and Metabolism Division, CDRI, Lucknow, India. α-Arteether was used as an internal standard and all the analyses were performed as per the published method by Singh et al. 2009 [19]. Acceptance criteria for analytical runs were fixed as per internationally approved guidelines. Data acquisition and quantitation were performed using analyst software version 1.4 (Applied Biosystems, MDS SCIEX Toronto, Canada). PK parameters were estimated by using WinNonlin software (Version 1.5, Pharsight Corporation, Mountain View, CA). Oral data were best fitted in noncompartmental model. The individual plasma concentration-time profiles were subjected to noncompartmental analysis to determine various PK parameters. The PK parameters included the terminal elimination half-life (T 1/2), maximum plasma concentration (C max), time to reach maximum plasma concentration (T max), area under the curve (AUC0–∞), and mean residence time (MRT).

In the case of `C=C(c1ccc(OC(C)(C)COC(=O)CCC(=O)O)cc1)C1COC2(OO1)C1CC3CC(C1)CC2C3` (centres unmarked) [CDRI 97/78, Mono[2methyl2[3(1spiro[tricycle[3.3.1.13,7]decane2,3′-[1,2,4]trioxan] 6′-ylethenyl)phenoxy]propyl] ester], the Hemoglobin (healthy human volunteers; 7th day) is reported as 14.35 ± 1.10 gm%, the Hemoglobin (healthy human volunteers; 24 hr) is reported as 14.92 ± 0.94 gm% and the Hemoglobin (healthy human volunteers; baseline) is reported as 14.25 ± 0.75 gm%. For the same compound, the Antimalarial activity [1] was “powerful antimalarial activity”, the Maximum tolerated dose (rats) was 100 mg/kg and the Antimalarial activity [2] was “powerful antimalarial activity”. The Absorption [3] was “rapidly absorbed” and the “Plasma concentration of parent molecule” value ([3]; most of the volunteers) was “below the limit of quantitation”.
